How the values were obtained:
Format in all cases: in vivo, human
HDL cholesterol = experiment: Example 1: fasting HDL cholesterol after 24 weeks, OBT plus maraviroc vs OBT plus placebo; conditions: for Numbers of individuals with maximum % increase in HDL cholesterol in range 10 to >30 (sum, within sensitivity range of assay) / Numbers of individuals with maximum % increase in HDL cholesterol relative to baseline 0-5% / Numbers of individuals with maximum % increase in HDL cholesterol relative to baseline 5-<10% / Numbers of individuals with maximum % increase in HDL cholesterol relative to baseline 10-<20% / Numbers of individuals with maximum % increase in HDL cholesterol relative to baseline 20-<30% / Numbers of individuals with maximum % increase in HDL cholesterol relative to baseline <0% / Numbers of individuals with maximum % increase in HDL cholesterol relative to baseline ≧30% / Mean % Change in HDL / Mean % difference from Group1 (placebo) (95% Confidence Interval) in HDL: 24 weeks
Experimental: (§1) The eligible patients were randomised into three groups based on the drug regimens they received.
(§2) Prior to the first dose (Day 1), a fasting assessment was made, in which the following was measured and taken as the baseline measurement: total cholesterol, HDL, LDL, triglycerides, glucose and glycosolated haemoglobin.
HDL as part of a lipid profile was measured by Covance laboratories (Indianapolis, Ind.).
(§3) After 24 weeks of treatment or early termination, the same lipid parameters (in particular HDL levels) were measured again.

LDL cholesterol [1] = experiment: Example 1: fasting LDL cholesterol after 24 weeks, OBT plus maraviroc vs OBT plus placebo
Experimental: as §1, §2, §3

fasting lipid parameters = experiment: MERIT study: fasting lipoprotein profile (total cholesterol, HDL, LDL, triglycerides); conditions: for HDL cholesterol levels on treatment: 48 weeks
Source text: (§4) The MERIT study design included a fasting metabolic assessment at baseline and at Weeks 24 and 48 or at early study discontinuation, to evaluate the fasted lipid values in the MERIT study and their potential effect on cardiovascular risk.
(§5) For a 50% smoking rate scenario (which approximates to the smoking rate seen in the DAD Study-Friis-Møller N, et al. N Engl J Med 2003; 349:1993-2003), smoking status (yes/no) was randomly imputed to the study population 500 times, by sampling from a binomial distribution with a probability of success of 0.5. Smoking status was assumed to remain constant for the duration of the study.

[2] = tested on: HIV-1 (CXCR4 using viral population); experiment: Example 1: HIV-1 RNA viral load reduction after 24 weeks; conditions: for Treatment difference in VL (95% confidence interval) / Mean VL reduction: 24 weeks
Source text: The baseline HIV-1 RNA count was taken prior to the first dose (Day 1) and at multiple time points during the 24-week study period.

[3] = tested on: total cholesterol/HDL ratio; experiment: MERIT study: total cholesterol/HDL ratio; conditions: with Combivir; ARV-naive R5 HIV-1 patients; P=0.005 between groups
Source text: as §4, §5

[4] = MERIT study: 10-year coronary heart disease risk by Framingham equation; conditions: for Absolute CHD 10-year risk (mean [SD]): Framingham equation, simulated smoking rate 50%, with Combivir
Source text: as §5

LDL cholesterol [5] = experiment: MERIT study: on-treatment fasting LDL cholesterol vs NCEP cutpoints; conditions: with Combivir
Source text: as §4, §5

[6] = Group 2: OBT plus maraviroc 150 or 300 mg po QD, N = 63
[7] = Group 2: OBT plus maraviroc QD, n = 45
[8] = Group 3: OBT plus maraviroc 150 or 300 mg po BID, N = 61
[9] = Group 3: OBT plus maraviroc BID, n = 48
[10] = patients already above threshold at baseline excluded, P<0.0001

(N-{(1S)-3-[3-isopropyl-5-methyl-4H-1,2,4-triazole-4-yl]-exo-8-azabicyclo[3.2.1]oct-8-yl}-1-phenylpropyl)-4,4-difluorocyclohexanecarboxamide) [maraviroc]
Increase in HDL-C levels following treatment (HDL cholesterol; 300 mg BID maraviroc, Tables 2a, 3a): clear dose-related increase | Numbers of individuals with maximum % increase in HDL cholesterol in range 10 to >30 (sum, within sensitivity range of assay) (HDL cholesterol; [6]): 18 | Numbers of individuals with maximum % increase in HDL cholesterol relative to baseline 0-5% (HDL cholesterol; [6]): 6 | Numbers of individuals with maximum % increase in HDL cholesterol relative to baseline 5-<10% (HDL cholesterol; [6]): 4 | Numbers of individuals with maximum % increase in HDL cholesterol relative to baseline 10-<20% (HDL cholesterol; [6]): 7 | Numbers of individuals with maximum % increase in HDL cholesterol relative to baseline 20-<30% (HDL cholesterol; [6]): 2 | Numbers of individuals with maximum % increase in HDL cholesterol relative to baseline <0% (HDL cholesterol; [6]): 17 | Numbers of individuals with maximum % increase in HDL cholesterol relative to baseline ≧30% (HDL cholesterol; [6]): 9 | Mean % Change in HDL (HDL cholesterol; [7]): 13.1% | Mean % difference from Group1 (placebo) (95% Confidence Interval) in HDL (HDL cholesterol; [7]): 10.8 (−3.4, 25.0) % | Numbers of individuals with maximum % increase in HDL cholesterol in range 10 to >30 (sum, within sensitivity range of assay) (HDL cholesterol; [8]): 28 | Numbers of individuals with maximum % increase in HDL cholesterol relative to baseline 0-5% (HDL cholesterol; [8]): 5 | Numbers of individuals with maximum % increase in HDL cholesterol relative to baseline 5-<10% (HDL cholesterol; [8]): 1 | Numbers of individuals with maximum % increase in HDL cholesterol relative to baseline 10-<20% (HDL cholesterol; [8]): 9 | Numbers of individuals with maximum % increase in HDL cholesterol relative to baseline 20-<30% (HDL cholesterol; [8]): 8 | Numbers of individuals with maximum % increase in HDL cholesterol relative to baseline <0% (HDL cholesterol; [8]): 14 | Numbers of individuals with maximum % increase in HDL cholesterol relative to baseline ≧30% (HDL cholesterol; [8]): 11 | Mean % Change in HDL (HDL cholesterol; [9]): 17.4% | Mean % difference from Group1 (placebo) (95% Confidence Interval) in HDL (HDL cholesterol; [9]): 15.1 (1.1, 29.1) % | Numbers of individuals with maximum % increase in LDL cholesterol in range 10 to >30 (sum, within sensitivity range of assay) (LDL cholesterol [1]; [6]): 20 | Numbers of individuals with maximum % increase in LDL cholesterol relative to baseline 0-5% (LDL cholesterol [1]; [6]): 2 | Numbers of individuals with maximum % increase in LDL cholesterol relative to baseline 5-<10% (LDL cholesterol [1]; [6]): 5 | Numbers of individuals with maximum % increase in LDL cholesterol relative to baseline 10-<20% (LDL cholesterol [1]; [6]): 9 | Numbers of individuals with maximum % increase in LDL cholesterol relative to baseline 20-<30% (LDL cholesterol [1]; [6]): 4 | Numbers of individuals with maximum % increase in LDL cholesterol relative to baseline <0% (LDL cholesterol [1]; [6]): 11 | Numbers of individuals with maximum % increase in LDL cholesterol relative to baseline ≧30% (LDL cholesterol [1]; [6]): 7 | Numbers of individuals with maximum % increase in LDL cholesterol in range 10 to >30 (sum, within sensitivity range of assay) (LDL cholesterol [1]; [8]): 18 | Numbers of individuals with maximum % increase in LDL cholesterol relative to baseline 0-5% (LDL cholesterol [1]; [8]): 4 | Numbers of individuals with maximum % increase in LDL cholesterol relative to baseline 5-<10% (LDL cholesterol [1]; [8]): 1 | Numbers of individuals with maximum % increase in LDL cholesterol relative to baseline 10-<20% (LDL cholesterol [1]; [8]): 5 | Numbers of individuals with maximum % increase in LDL cholesterol relative to baseline 20-<30% (LDL cholesterol [1]; [8]): 3 | Numbers of individuals with maximum % increase in LDL cholesterol relative to baseline <0% (LDL cholesterol [1]; [8]): 18 | Numbers of individuals with maximum % increase in LDL cholesterol relative to baseline ≧30% (LDL cholesterol [1]; [8]): 10 | LDL levels after treatment compared with placebo (Group 1) (LDL cholesterol [1]; Table 1a): no increase over placebo | HDL cholesterol levels on treatment (fasting lipid parameters; with Combivir): improved | Treatment difference in VL (95% confidence interval) ([2]; Group 2: OBT plus maraviroc QD vs Group 1 (placebo)): +0.06 log10 copies/mL | Mean VL reduction ([2]; Group 2: OBT plus maraviroc QD): −0.91 log10 copies/mL | Treatment difference in VL (95% confidence interval) ([2]; Group 3: OBT plus maraviroc BID vs Group 1 (placebo)): −0.23 log10 copies/mL | Mean VL reduction ([2]; Group 3: OBT plus maraviroc BID): −1.20 log10 copies/mL | Reduction in viral load (VL) in HIV patients with CXCR4 using viral population ([2]; after 24 weeks, vs Group 1): no statistically significant reduction | Median decrease in the total cholesterol/HDL ratio [3]: −0.54

O=C1Nc2ccc(Cl)cc2[C@@](C#CC2CC2)(C(F)(F)F)O1 [efavirenz]
Absolute CHD 10-year risk (mean [SD]) ([4]; Week 24): 3.0% | Absolute CHD 10-year risk (mean [SD]) ([4]; Week 48): 3.3% | Relative risk of having a CHD event within 10 years ([4]; efavirenz group vs maraviroc group at Week 24 and Week 48, smoking rate 50%, FIG. 5b): consistently higher | Percentage of patients with increases in total cholesterol and LDL cholesterol levels at some point after baseline to ≧130 mg/dL (fasting lipid parameters; efavirenz compared with maraviroc, P<0.0001, FIG. 3b): greater percentage | Median maximum changes from baseline in total cholesterol, HDL cholesterol, LDL cholesterol and triglyceride levels (fasting lipid parameters; efavirenz group compared with maraviroc group, with Combivir, FIG. 1b): significantly greater | HDL cholesterol levels on treatment (fasting lipid parameters; with Combivir): improved | Median decrease in the total cholesterol/HDL ratio [3]: −0.43 | Number of patients who initiated LDL-lowering therapy during the study (LDL cholesterol [5]): six | Relation of change in LDL cholesterol to baseline LDL cholesterol (LDL cholesterol [5]; FIG. 2b): directly related | Patients with high on-treatment LDL cholesterol level (≧160 mg/dL) at both Week 24 and Week 48 (%) (LDL cholesterol [5]; P=0.007): 2.9% | Patients with high on-treatment LDL cholesterol level (≧160 mg/dL) at both Week 24 and Week 48 (n/N) (LDL cholesterol [5]; P=0.007): 10/343 | Patients who developed LDL cholesterol levels during the study that were ≧160 mg/dL (%) (LDL cholesterol [5]; [10]): 9% | Patients who developed LDL cholesterol levels during the study that were ≧160 mg/dL (n/N) (LDL cholesterol [5]; [10]): 31/343

— US20100267765A1, “Pharmaceutical Compositions and Methods for CCR5 Antagonists” (priority 2007, published 2010)
